In patent US8629157B2, “Pyrrolidine compounds which modulate the CB2 receptor” (Boehringer Ingelheim International GmbH, priority 2009, dated 2014):

Target: human CB2R (Homo sapiens, UniProt P34972)
Assay: CB2R mediated modulation of cAMP synthesis
Format: cell-based
Conditions: not given
Outline: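 cAMP measured with the DiscoverX-XS kit after 30 min, 37° C. compound exposure of human CB2R-expressing CHO cells stimulated by 10 uM forskolin (1 mM IBMX, 0.25% BSA).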

Sequence of human CB2R (P34972 whole entry): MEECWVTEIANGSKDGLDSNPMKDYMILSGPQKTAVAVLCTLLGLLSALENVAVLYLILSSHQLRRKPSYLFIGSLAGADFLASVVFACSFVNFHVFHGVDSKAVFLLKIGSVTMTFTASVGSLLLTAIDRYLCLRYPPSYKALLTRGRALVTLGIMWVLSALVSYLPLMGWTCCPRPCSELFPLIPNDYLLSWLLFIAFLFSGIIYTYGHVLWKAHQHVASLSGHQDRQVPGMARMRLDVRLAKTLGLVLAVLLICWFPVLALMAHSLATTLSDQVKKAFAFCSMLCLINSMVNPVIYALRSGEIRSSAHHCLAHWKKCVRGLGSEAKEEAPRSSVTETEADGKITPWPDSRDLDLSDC

Which EC50 does the source give for `O=C(Nc1nc(C(F)(F)F)co1)[C@@H]1CCCN1c1ccc(Cl)cc1` [(S)-1-(4-Chloro-phenyl)-pyrrolidine-2-carboxylic acid (4-trifluoromethyl-oxazol-2-yl)-amide] here?
The EC50 was 5.79 nM.

`O=C(Nc1cc(C(F)(F)F)ccn1)[C@@H]1CCCN1c1ccc(Cl)cc1` [(S)-1-(4-Chloro-phenyl)-pyrrolidine-2-carboxylic acid (4-trifluoromethyl-pyridin-2-yl)-amide] was tested. Which EC50 did it give?
The EC50 was 23.4 nM.

How did the EC50 turn out when `O=C(Nc1nc(C(F)(F)F)cs1)[C@@H]1CCCN1c1ccc(Cl)cc1` [(S)-1-(4-Chloro-phenyl)-pyrrolidine-2-carboxylic acid (4-trifluoromethyl-thiazol-2-yl)-amide] was run?
Its EC50 is 89.2 nM.

How did the EC50 turn out when `CC1(C)CC(=O)C=C(NC(=O)[C@@H]2CCCN2c2ccc(Cl)cc2)C1` [(S)-1-(4-Chloro-phenyl)-pyrrolidine-2-carboxylic acid (5,5-dimethyl-3-oxo-cyclohex-1-enyl)-amide] was run?
The EC50 was 17.9 nM.

How did the EC50 turn out when `O=C(Nc1nc2cc(Cl)ccc2[nH]1)[C@@H]1CCCN1c1ccc(Cl)cc1` [(S)-1-(4-Chloro-phenyl)-pyrrolidine-2-carboxylic acid (5-chloro-1H-benzimidazol-2-yl)-amide] was run?
The EC50 was 2.16 nM.

With `Cc1ccc(NC(=O)[C@@H]2CCCN2c2ccc(Cl)cc2)nc1` [(S)-1-(4-Chloro-phenyl)-pyrrolidine-2-carboxylic acid (5-methyl-pyridin-2-yl)-amide] as the compound, how does the EC50 read?
The EC50 was 120 nM.

With `O=C(Nc1nnc(-c2ccccc2)s1)[C@@H]1CCCN1c1ccc(Cl)cc1` [(S)-1-(4-Chloro-phenyl)-pyrrolidine-2-carboxylic acid (5-phenyl-1,3,4-thiadiazol-2-yl)-amide] as the compound, how does the EC50 read?
The EC50 was 11.2 nM.

Which EC50 does the source give for `CC(C)(C)c1nnc(NC(=O)[C@@H]2CCCN2c2ccc(Cl)cc2)s1` [(S)-1-(4-Chloro-phenyl)-pyrrolidine-2-carboxylic acid (5-tert-butyl-1,3,4-thiadiazol-2-yl)-amide] here?
Its EC50 is 0.098 nM.

How did the EC50 turn out when `O=C(Nc1ccc(C(F)(F)F)cn1)[C@@H]1CCCN1c1ccc(Cl)cc1` [(S)-1-(4-Chloro-phenyl)-pyrrolidine-2-carboxylic acid (5-trifluoromethyl-pyridin-2-yl)-amide] was run?
The EC50 was 35.1 nM.

How did the EC50 turn out when `O=C(Nc1cccc(C(F)(F)F)n1)[C@@H]1CCCN1c1ccc(Cl)cc1` [(S)-1-(4-Chloro-phenyl)-pyrrolidine-2-carboxylic acid (6-trifluoromethyl-pyridin-2-yl)-amide] was run?
The EC50 was 48.8 nM.

For `O=C(NC1CCOCC1)[C@@H]1CCCN1c1ccc(Cl)cc1` [(S)-1-(4-Chloro-phenyl)-pyrrolidine-2-carboxylic acid (tetrahydro-pyran-4-yl)-amide], which EC50 is on record?
The EC50 was 254 nM.

`O=C(NCC1CCOCC1)[C@@H]1CCCN1c1ccc(Cl)cc1` [(S)-1-(4-Chloro-phenyl)-pyrrolidine-2-carboxylic acid (tetrahydro-pyran-4-ylmethyl)-amide] was tested. Which EC50 did it give?
The EC50 was 415 nM.

Which EC50 does the source give for `CC(Cc1ccc(Cl)cc1)NC(=O)[C@@H]1CCCN1c1ccc(Cl)cc1` (stereo partly drawn) [(S)-1-(4-Chloro-phenyl)-pyrrolidine-2-carboxylic acid [2-(4-chloro-phenyl)-1-methyl-ethyl]-amide] here?
The EC50 was 270 nM.

`O=C(NCCC1CCOCC1)[C@@H]1CCCN1c1ccc(Cl)cc1` [(S)-1-(4-Chloro-phenyl)-pyrrolidine-2-carboxylic acid [2-(tetrahydro-pyran-4-yl)-ethyl]-amide] was tested. Which EC50 did it give?
The EC50 was 105 nM.

How did the EC50 turn out when `CC(C)(CO)c1cc(NC(=O)[C@@H]2CCCN2c2ccc(Cl)cc2)on1` [(S)-1-(4-Chloro-phenyl)-pyrrolidine-2-carboxylic acid [3-(2-hydroxy-1,1-dimethyl-ethyl)-isoxazol-5-yl]-amide] was run?
Its EC50 is 0.378 nM.

Which EC50 does the source give for `O=C(Nc1nc(-c2ccc(Cl)cc2)cs1)[C@@H]1CCCN1c1ccc(Cl)cc1` [(S)-1-(4-Chloro-phenyl)-pyrrolidine-2-carboxylic acid [4-(4-chloro-phenyl)-thiazol-2-yl]-amide] here?
Its EC50 is 84.9 nM.

`O=C(Nc1nc(-c2ccc(F)cc2)cs1)[C@@H]1CCCN1c1ccc(Cl)cc1` [(S)-1-(4-Chloro-phenyl)-pyrrolidine-2-carboxylic acid [4-(4-fluoro-phenyl)-thiazol-2-yl]-amide] was tested. Which EC50 did it give?
The EC50 was 115 nM.

How did the EC50 turn out when `CC(C)(C)c1cc(NC(=O)[C@@H]2CCC(=O)N2c2ccc(C#N)c(F)c2)no1` [(S)-1-(4-Cyano-3-fluoro-phenyl)-5-oxo-pyrrolidine-2-carboxylic acid (5-tert-butyl-isoxazol-3-yl)-amide] was run?
The EC50 was 78.5 nM.

How did the EC50 turn out when `CC(C)(C)c1cc(NC(=O)[C@@H]2CCCN2Cc2ccc(OC(F)F)cc2)on1` [(S)-1-(4-Difluoromethoxy-benzyl)-pyrrolidine-2-carboxylic acid (3-tert-butyl-isoxazol-5-yl)-amide] was run?
The EC50 was 8.04 nM.

Which EC50 does the source give for `CC(C)(C)c1cc(NC(=O)[C@@H]2CCC(=O)N2c2ccc(C(F)F)cc2)on1` [(S)-1-(4-Difluoromethyl-phenyl)-5-oxo-pyrrolidine-2-carboxylic acid (3-tert-butyl-isoxazol-5-yl)-amide] here?
The EC50 was 15.2 nM.

How did the EC50 turn out when `CCc1ccc(N2C(=O)CC[C@H]2C(=O)Nc2cc(C(C)(C)C)no2)cc1` [(S)-1-(4-Ethyl-phenyl)-5-oxo-pyrrolidine-2-carboxylic acid (3-tert-butyl-isoxazol-5-yl)-amide] was run?
The EC50 was 173 nM.

`Cc1cc(N2C(=O)CC[C@H]2C(=O)Nc2cc(C(C)(C)C)no2)ccc1F` [(S)-1-(4-Fluoro-3-methyl-phenyl)-5-oxo-pyrrolidine-2-carboxylic acid (3-tert-butyl-isoxazol-5-yl)-amide] was tested. Which EC50 did it give?
Its EC50 is 91.2 nM.

With `Cc1cc(N2C(=O)CC[C@H]2C(=O)Nc2cc(C(C)(C)C)on2)ccc1F` [(S)-1-(4-Fluoro-3-methyl-phenyl)-5-oxo-pyrrolidine-2-carboxylic acid (5-tert-butyl-isoxazol-3-yl)-amide] as the compound, how does the EC50 read?
Its EC50 is 362 nM.

For `CC(C)(C)c1cc(NC(=O)[C@@H]2CCCN2Cc2ccc(F)cc2)on1` [(S)-1-(4-Fluoro-benzyl)-pyrrolidine-2-carboxylic acid (3-tert-butyl-isoxazol-5-yl)-amide], which EC50 is on record?
Its EC50 is 0.747 nM.

`CC(C)(C)c1cc(NC(=O)[C@@H]2CCC(=O)N2c2ccc(CF)cc2)on1` [(S)-1-(4-Fluoromethyl-phenyl)-5-oxo-pyrrolidine-2-carboxylic acid (3-tert-butyl-isoxazol-5-yl)-amide] was tested. Which EC50 did it give?
The EC50 was 55.8 nM.

With `CC(C)c1ccc(N2C(=O)CC[C@H]2C(=O)Nc2cc(C(C)(C)C)no2)cc1` [(S)-1-(4-Isopropyl-phenyl)-5-oxo-pyrrolidine-2-carboxylic acid (3-tert-butyl-isoxazol-5-yl)-amide] as the compound, how does the EC50 read?
Its EC50 is 159 nM.

For `CC(C)(C)c1cc(NC(=O)[C@@H]2CCCN2S(=O)(=O)c2ccc(S(C)(=O)=O)cc2)no1` [(S)-1-(4-Methanesulfonyl-benzenesulfonyl)-pyrrolidine-2-carboxylic acid (5-tert-butyl-isoxazol-3-yl)-amide], which EC50 is on record?
The EC50 was 183 nM.

For `COc1ccc(N2C(=O)CC[C@H]2C(=O)Nc2cc(C(C)(C)C)no2)cc1` [(S)-1-(4-Methoxy-phenyl)-5-oxo-pyrrolidine-2-carboxylic acid (3-tert-butyl-isoxazol-5-yl)-amide], which EC50 is on record?
The EC50 was 163 nM.

For `CC(C)(C)c1cc(NC(=O)[C@@H]2CCCN2S(=O)(=O)c2ccc(C(F)(F)F)cc2)no1` [(S)-1-(4-Trifluoromethyl-benzenesulfonyl)-pyrrolidine-2-carboxylic acid (5-tert-butyl-isoxazol-3-yl)-amide], which EC50 is on record?
Its EC50 is 222 nM.

With `O=C(Nc1ccc(C(F)(F)F)cn1)[C@@H]1CCCN1c1ccc(C(F)(F)F)cc1` [(S)-1-(4-Trifluoromethyl-phenyl)-pyrrolidine-2-carboxylic acid (5-trifluoromethyl-pyridin-2-yl)-amide] as the compound, how does the EC50 read?
The EC50 was 15.5 nM.

For `CC(C)(C)c1cc(NC(=O)[C@@H]2CCC(=O)N2c2ccc(C#N)cc2)no1` [(S)-1-(4-cyano-phenyl)-5-oxo-pyrrolidine-2-carboxylic acid (5-tert-butyl-isoxazol-3-yl)-amide], which EC50 is on record?
The EC50 was 59.9 nM.

With `CC(C)(C)c1cc(NC(=O)[C@@H]2CCC(=O)N2c2ccc(F)cc2)no1` [(S)-1-(4-fluoro-phenyl)-5-oxo-pyrrolidine-2-carboxylic acid (5-tert-butyl-isoxazol-3-yl)-amide] as the compound, how does the EC50 read?
Its EC50 is 35.7 nM.

How did the EC50 turn out when `CC(C)(C)c1cc(NC(=O)[C@@H]2CCC(=O)N2c2ccc([N+](=O)[O-])cc2)no1` [(S)-1-(4-nitro-phenyl)-5-oxo-pyrrolidine-2-carboxylic acid (5-tert-butyl-isoxazol-3-yl)-amide] was run?
Its EC50 is 21.1 nM.

Which EC50 does the source give for `CC(C)(C)c1cc(NC(=O)[C@@H]2CCCN2c2ncc(Cl)cc2F)on1` [(S)-1-(5-Chloro-3-fluoro-pyridin-2-yl)-pyrrolidine-2-carboxylic acid (3-tert-butyl-isoxazol-5-yl)-amide] here?
Its EC50 is 0.02 nM.

How did the EC50 turn out when `CC(C)(C)c1cc(NC(=O)[C@@H]2CCC(=O)N2c2ccc(Cl)cn2)on1` [(S)-1-(5-Chloro-pyridin-2-yl)-5-oxo-pyrrolidine-2-carboxylic acid (3-tert-butyl-isoxazol-5-yl)-amide] was run?
The EC50 was 3.44 nM.

How did the EC50 turn out when `CC(C)(C)c1cc(NC(=O)[C@@H]2CCC(=O)N2c2ncc(Cl)cn2)on1` [(S)-1-(5-Chloro-pyrimidin-2-yl)-5-oxo-pyrrolidine-2-carboxylic acid (3-tert-butyl-isoxazol-5-yl)-amide] was run?
The EC50 was 455 nM.

For `CC(C)(C)c1cc(NC(=O)[C@@H]2CCC(=O)N2c2ccc(Cl)s2)on1` [(S)-1-(5-Chloro-thiophen-2-yl)-5-oxo-pyrrolidine-2-carboxylic acid (3-tert-butyl-isoxazol-5-yl)-amide], which EC50 is on record?
Its EC50 is 67.5 nM.

With `Cc1nc(N2C(=O)CC[C@H]2C(=O)Nc2cc(C(C)(C)C)no2)ccc1F` [(S)-1-(5-Fluoro-6-methyl-pyridin-2-yl)-5-oxo-pyrrolidine-2-carboxylic acid (3-tert-butyl-isoxazol-5-yl)-amide] as the compound, how does the EC50 read?
The EC50 was 74.4 nM.

Which EC50 does the source give for `CC(C)(C)c1cc(NC(=O)[C@@H]2CCC(=O)N2c2ccc(F)cn2)on1` [(S)-1-(5-Fluoro-pyridin-2-yl)-5-oxo-pyrrolidine-2-carboxylic acid (3-tert-butyl-isoxazol-5-yl)-amide] here?
Its EC50 is 8.15 nM.

Same assay, conditions: CHO cells expressing human CB2R; inhibition of forskolin-stimulated cAMP synthesis; mean; read-out: CB2 CAMP @ EC50 nM (mean)

How did the EC50 turn out when `CC(C)(C)c1cc(NC(=O)[C@@H]2CCC(=O)N2c2ccc(C#N)c(F)c2)on1` [(S)-1-(4-Cyano-3-fluoro-phenyl)-5-oxo-pyrrolidine-2-carboxylic acid (3-tert-butyl-isoxazol-5-yl)-amide] was run?
The EC50 was 286 nM.
